Test: xn = mol fraction of the nth substance listed

C=CC(=O)OCCCC + CCCCO
101.33 kPa
Settings	viscosity [mPa·s]
293.15 K, x1 = 0.0999	2.173
293.15 K, x1 = 0.2001	1.725
293.15 K, x1 = 0.2999	1.448
293.15 K, x1 = 0.3998	1.245
293.15 K, x1 = 0.5002	1.117
293.15 K, x1 = 0.6002	1.025
293.15 K, x1 = 0.7002	0.9619
293.15 K, x1 = 0.8	0.9168
293.15 K, x1 = 0.9	0.8882
303.15 K, x1 = 0.0999	1.718
303.15 K, x1 = 0.1998	1.385
303.15 K, x1 = 0.3006	1.185
303.15 K, x1 = 0.3999	1.035
303.15 K, x1 = 0.4992	0.9378
303.15 K, x1 = 0.5983	0.8682
303.15 K, x1 = 0.6991	0.8213
303.15 K, x1 = 0.8002	0.784
303.15 K, x1 = 0.9003	0.7678
313.15 K, x1 = 0.1004	1.291
313.15 K, x1 = 0.2001	1.018
313.15 K, x1 = 0.3002	0.8796
313.15 K, x1 = 0.3999	0.7948
313.15 K, x1 = 0.4994	0.7351
313.15 K, x1 = 0.5998	0.7091
313.15 K, x1 = 0.6999	0.6745
313.15 K, x1 = 0.7578	0.6676
313.15 K, x1 = 0.8999	0.6659

CC(C)CO + CCCCO
101 kPa
Settings	viscosity [mPa·s]
293.15 K, x2 = 0.2	3.68
293.15 K, x2 = 0.4	3.434
293.15 K, x2 = 0.6	3.243
293.15 K, x2 = 0.8	3.078
298.15 K, x2 = 0.0982	3.238
298.15 K, x2 = 0.2007	3.111
298.15 K, x2 = 0.301	3.016
298.15 K, x2 = 0.4046	2.935
298.15 K, x2 = 0.5026	2.859
298.15 K, x2 = 0.6261	2.772
298.15 K, x2 = 0.7024	2.726
298.15 K, x2 = 0.8001	2.672
298.15 K, x2 = 0.9178	2.608
313.15 K, x2 = 0.2	2.022
313.15 K, x2 = 0.4	1.937
313.15 K, x2 = 0.6	1.872
313.15 K, x2 = 0.8	1.818

CCCC=O + CCCCO
viscosity [mPa·s], 100 kPa
Settings	294.53 K	294.63 K	319.13 K	320.13 K
x2 = 0.59	–	5.78	2.552	–
x2 = 0.9	5.49	–	–	2.98

CCCCCC + CCCCO
viscosity [mPa·s]
Settings	298.15 K	313.15 K	318.15 K
101 kPa, x2 = 0.08	0.33	–	0.266
101 kPa, x2 = 0.1284	0.345	–	0.284
101 kPa, x2 = 0.1441	0.35	–	0.29
101 kPa, x2 = 0.2	0.385	–	0.311
101 kPa, x2 = 0.28	0.415	–	0.33
101.3 kPa, x2 = 0.0999	0.3222	0.2741	–
101.3 kPa, x2 = 0.1997	0.3628	0.306	–
101.3 kPa, x2 = 0.299	0.4227	0.3503	–
101.3 kPa, x2 = 0.4007	0.5201	0.4169	–
101.3 kPa, x2 = 0.499	0.642	0.5063	–
101.3 kPa, x2 = 0.5988	0.8264	0.6311	–
101.3 kPa, x2 = 0.6996	1.082	0.8166	–
101.3 kPa, x2 = 0.8	1.421	1.041	–
101.3 kPa, x2 = 0.8994	1.888	1.33	–
101.33 kPa, x1 = 0.0971	1.848	–	–
101.33 kPa, x1 = 0.1707	1.496	–	–
101.33 kPa, x1 = 0.2625	1.169	–	–
101.33 kPa, x1 = 0.3521	0.909	–	–
101.33 kPa, x1 = 0.4142	0.778	–	–
101.33 kPa, x1 = 0.562	0.539	–	–
101.33 kPa, x1 = 0.6624	0.44	–	–
101.33 kPa, x1 = 0.8147	0.348	–	–
101.33 kPa, x1 = 0.9267	0.306	–	–

— the CheMixHub viscosity set
